Source: the supplement of paper PMC10307832

Experiments:
Assay in all cases: relative viability (nuclei count vs DMSO), 5 days (fraction); higher = more cells survive
OSI-027 + Linsitinib = compound: COc1cccc2cc(-c3nc([C@H]4CC[C@H](C(=O)O)CC4)n4ncnc(N)c34)[nH]c12 [OSI-027] + C[C@]1(O)C[C@@H](c2nc(-c3ccc4ccc(-c5ccccc5)nc4c3)c3c(N)nccn32)C1 [Linsitinib] (partner 1 µM)
Summary of the method: (§1)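 Five library-drug doses in √10 steps were combined with a fixed anchor-drug dose, or a single drug was given alone, by pin tool to lung cancer cell lines in 1536-well plates the day after seeding. Nuclei were stained and counted after 5 days. Relative viability is the nuclei count in treated wells over that in vehicle wells, taken as the median of duplicate plates.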

[1] = compound: CCCS(=O)(=O)Nc1ccc(F)c(C(=O)c2c[nH]c3ncc(-c4ccc(Cl)cc4)cc23)c1F [Vemurafenib] + CC(=O)c1c(C)c2cnc(Nc3ccc(N4CCNCC4)cn3)nc2n(C2CCCC2)c1=O [Palbociclib] (partner 0.5 µM)
Summary of the method: as §1

OSI-027 + Pictilisib = compound: COc1cccc2cc(-c3nc([C@H]4CC[C@H](C(=O)O)CC4)n4ncnc(N)c34)[nH]c12 [OSI-027] + CS(=O)(=O)N1CCN(Cc2cc3nc(-c4cccc5[nH]ncc45)nc(N4CCOCC4)c3s2)CC1 [Pictilisib] (partner 1 µM)
Summary of the method: as §1

OSI-027 + Luminespib = compound: COc1cccc2cc(-c3nc([C@H]4CC[C@H](C(=O)O)CC4)n4ncnc(N)c34)[nH]c12 [OSI-027] + CCNC(=O)c1noc(-c2cc(C(C)C)c(O)cc2O)c1-c1ccc(CN2CCOCC2)cc1 [Luminespib] (partner 0.01 µM)
Summary of the method: as §1

Cell Line | relative viability (OSI-027 + Linsitinib; first compound 0.01 µM) | relative viability (OSI-027 + Linsitinib; first compound 0.03162 µM) | relative viability (OSI-027 + Linsitinib; first compound 0.1 µM) | relative viability (OSI-027 + Linsitinib; first compound 0.3162 µM) | relative viability (OSI-027 + Linsitinib; first compound 1 µM) | relative viability ([1]; first compound 0.03162 µM) | relative viability ([1]; first compound 0.1 µM) | relative viability ([1]; first compound 0.3162 µM) | relative viability ([1]; first compound 1 µM) | relative viability (OSI-027 + Pictilisib; first compound 0.01 µM) | relative viability (OSI-027 + Pictilisib; first compound 0.03162 µM) | relative viability (OSI-027 + Pictilisib; first compound 0.1 µM) | relative viability (OSI-027 + Pictilisib; first compound 0.3162 µM) | relative viability (OSI-027 + Pictilisib; first compound 1 µM) | relative viability (OSI-027 + Luminespib; first compound 0.01 µM) | relative viability (OSI-027 + Luminespib; first compound 0.03162 µM) | relative viability (OSI-027 + Luminespib; first compound 0.1 µM) | relative viability (OSI-027 + Luminespib; first compound 0.3162 µM) | relative viability (OSI-027 + Luminespib; first compound 1 µM)
NCI-H1975 | 1.09 | 1.03 | 0.822 | 0.706 | 0.339 | 0.553 | 0.471 | 0.41 | 0.382 | 0.279 | 0.236 | 0.312 | 0.178 | 0.218 | 0.232 | 0.195 | 0.157 | 0.121 | 0.187
HCC-15 | 0.881 | 0.857 | 0.795 | 0.662 | 0.463 | 0.717 | 0.689 | 0.673 | 0.775 | 0.768 | 0.771 | 0.68 | 0.596 | 0.367 | 0.347 | 0.501 | 0.397 | 0.264 | 0.339
COR-L23 | 1.02 | 0.837 | 0.792 | 0.549 | 0.181 | 0.325 | 0.257 | 0.178 | 0.265 | 0.834 | 0.877 | 0.668 | 0.459 | 0.171 | 0.851 | 0.671 | 0.772 | 0.499 | 0.289
NCI-H23 | 0.517 | 0.549 | 0.452 | 0.237 | 0.212 | 0.495 | 0.479 | 0.498 | 0.536 | 0.491 | 0.403 | 0.407 | 0.312 | 0.245 |  | 0.215 | 0.188 | 0.203 | 0.225
NCI-H441 | 0.643 | 0.452 | 0.399 | 0.387 | 0.206 | 0.23 | 0.185 | 0.241 | 0.237 | 0.459 | 0.312 | 0.491 | 0.312 | 0.257 | 0.367 | 0.393 | 0.307 | 0.235 | 0.236
NCI-H1734 | 0.937 | 0.794 | 0.809 | 0.656 | 0.309 | 0.344 | 0.335 | 0.343 | 0.317 | 0.455 | 0.45 | 0.491 | 0.337 | 0.264 | 0.174 | 0.179 | 0.203 | 0.166 | 0.178
LXF-289 | 0.995 | 1.06 | 0.972 | 0.956 | 0.445 | 0.548 | 0.526 | 0.601 | 0.667 | 0.778 | 0.714 | 0.752 | 0.511 | 0.46 | 0.544 | 0.612 | 0.471 | 0.458 | 0.258
NCI-H838 | 0.819 | 0.584 | 0.456 | 0.305 | 0.254 | 0.213 | 0.236 | 0.177 | 0.343 | 0.409 | 0.434 | 0.294 | 0.241 | 0.297 | 0.281 | 0.338 | 0.336 | 0.192 | 0.195
NCI-H1993 | 0.684 | 0.777 | 0.703 | 0.603 | 0.681 | 0.63 |  | 0.703 | 0.54 | 0.808 | 0.906 | 0.86 | 0.798 | 0.691 | 0.815 | 0.795 | 0.71 | 0.498 | 0.548
NCI-H1437 | 0.962 | 0.6 | 0.702 | 0.292 | 0.155 | 0.311 | 0.307 | 0.311 | 0.346 | 0.359 | 0.4 | 0.282 | 0.222 | 0.214 | 1.08 | 1.12 | 1.16 | 1.14 | 0.806
NCI-H647 | 1.29 | 1.2 | 0.944 | 0.855 | 0.496 | 0.375 | 0.434 | 0.404 | 0.394 | 0.395 | 0.398 | 0.234 | 0.276 | 0.15 | 0.153 | 0.146 | 0.145 | 0.149 | 0.0965
ABC-1 | 0.768 | 0.749 | 0.58 | 0.32 | 0.316 | 0.744 | 0.57 | 0.767 | 0.545 | 0.627 | 0.653 | 0.632 | 0.445 | 0.319 |  | 0.321 | 0.405 | 0.377 | 0.386
